Assay results reported in PMC11310889, “Ribosomal translation of fluorinated non-canonical amino acids for de novo biologically active fluorinated macrocyclic peptides” (Chemical Science, 2024).

Test system: E. coli W3110
Assay: Scanning electron microscopy of cell morphology
Type: cell-based, Escherichia coli
Conditions: E. coli W3110 logarithmic-phase, 4 h treatment at 2 μM and 5 μM (Fig. 5B, S11)
Protocol: Thaw the previously preserved E. coli W3110 cells from the -80 °C freezer. […]
Scanning electron microscopy
Thaw the previously preserved E. coli W3110 cells from the -80°C freezer. Scrape a small amount and inoculate it into 1 mL of LB liquid medium. Incubate overnight in a 37°C shaker. The next day, inoculate the strain into fresh LB liquid medium at a 1:100 ratio and incubate at 37°C until the OD600 reaches approximately 0.47 to 0.53. Take 500 μL of E. coli W3110 cells, centrifuge for 10 min at 4000 rpm, and discard the supernatant. Resuspend the cells in 500 μL of PBS, then centrifuge again at 4000 rpm for 10 min and discard the supernatant. Dissolve various macrocyclic peptides in DMSO and dilute to the required concentration. Resuspend the untreated group in 500 μL of PBS.
For the peptide treatment group, resuspend in 495 μL of ddH2O, add 5 μL of 0.2 mM or 0.5 mM peptides, mix well, and let react for 4 h.
After the treament, spot 4 μL of the sample on plates. Perform the first ten-fold dilution and mix, then continue with the second to fifth ten-fold dilutions. Incubate the plates inverted overnight in a 37°C incubator. Scan and count the colonies. For the remaining 492 μL, centrifuge at 6100g for 10 min, discard the supernatant, add 500 μL of ddH2O, and let it stand for 15 min. Centrifuge again at 6100g for 10 min, discard the supernatant, and add 500 μL of ddH2O containing 2.5% glutaraldehyde. Resuspend and fix the cells overnight at 4°C. Centrifuge at 6100g for 10 min, remove the supernatant, and wash twice with ddH2O, letting it stand for 15 min each time, followed by centrifugation at 6100g for 10 min. Discard the supernatant. Dehydrate the sample with ethanol at concentration gradients of 30%, 60%, and 90%, without resuspension, centrifuging at 6100g for […]
10 min and discarding the supernatant after each step. Finally, use 100% ethanol, rest for 15 min, centrifuge at 6100g for 10 min, discard the supernatant, and repeat with 100% ethanol, leaving about 10 μL. Then the critical point was dried and sprayed with gold, and the images were observed by […]
Prediction of binding sites between peptides and the BAM complex
Firstly, the fpocket algorithm was used, a rapid method for pocket prediction based on the three-dimensional structure of BAM complex (PDB ID: 5AYW). This method establishes a grid surrounding the protein, positioning alpha spheres on grid points devoid of spatial conflicts with protein atoms, subsequently utilizing a clustering algorithm to ascertain whether these regions constitute potential binding pockets. Alpha spheres were designated with radii ranging from 3.4Å to 6.2Å, with a prerequisite of at least 15 alpha spheres for a region to be considered a pocket. […]
PepNN evaluated each amino acid for its potentiality as a peptide binding site. […]

Substance	morphological changes by scanning electron microscopy
Ac-(4-F-DPhe)KHFIY(4-F-β-Phe)YRSPICGS(Acp)RRRRRRRRR-NH2 (sidechain bridge or staple) [BAM-β3-R9, BAM-β3 conjugated with cell-penetrating peptide R9]	severe damage in the cell shape and even lysis
Ac-(4-F-DPhe)IWHKSLT(4-F-DPhe)NYLHTCGS(Acp)RRRRRRRRR-NH2 (sidechain bridge or staple) [BAM-f2-R9, BAM-f2 conjugated with cell-penetrating peptide R9]	severe damage in the cell shape and even lysis
